Measured values: patent US20220235064A1 (WELLMARKER BIO CO., LTD., priority 2019, published 2022)

The molecules below were run against T1, RON tyrosine kinase (Homo sapiens, UniProt Q04912) (assay: Enzyme inhibitory activity against RON tyrosine kinase (TR-FRET)). Conditions: RON (Carna Bioscience).
T1 construct: purchased Carna Bioscience
Format: biochemical
Description: Experimental Example 1: Measurement of Enzyme Inhibitory Activity Against RON Tyrosine Kinase
To measure enzyme inhibitory activity of the example compounds against RON, IC50 values of the compounds were measured using fluorescence resonance energy transfer (FRET).
Specifically, first, RON (Carna Bioscience) was diluted in a kinase assay buffer (50 mM HEPES pH 7.5, 1 mM EGTA, 10 mM MgCl2, 2 mM DTT, and 0.01% Tween-20) to be at a concentration (0.4 nM) that is twice the final reaction concentration. The dilute was added to a 384-well-plate at 5 μl per well. Each of the example compounds was prepared at a concentration of 1 mM in 100% DMSO and diluted 8 times in a stepwise manner through 10-fold dilution. Each compound was diluted in a kinase assay buffer to be at a concentration that is 4 times the final reaction concentration. The dilute was added to a 384-well-plate at 2.5 μl per well, and incubation was performed at room temperature for 15 minutes.
Thereafter, an ATP solution (Sigma Aldrich) prepared at a concentration of 0.25 M was diluted in a kinase assay buffer to be at a concentration (60 μM) that is 4 times the final reaction concentration. Dilution of a tyrosine peptide substrate (Perkin-Elmer) was performed therein to be at a concentration (400 nM) that is 4 times the final reaction concentration. The dilute was added to a 384-well-plate at 2.5 µl per well. Reaction was allowed to proceed for 60 minutes by incubating the 384-well-plate at room temperature. Thereafter, EDTA (Sigma Aldrich) was diluted in a TR-FRET detection buffer (Perkin-Elmer) to be at a concentration (20 mM) that is twice the final reaction concentration. Dilution of a Europium-containing phosphotyrosine antibody (Perkin-Elmer) was performed in the diluted EDTA solution to be at a concentration (4 nM) that is twice the final reaction concentration, so that a stop solution for RON reaction was prepared.
The stop solution was added to the 384-well-plate at 10 μl per well to quench the reaction, and incubation was performed at room temperature for 60 minutes. Then, the 384-well-plate was read on a Victor X5 (Perkin-Elmer) plate reader. Here, the excitation wavelength was 340 nm, and the emission wavelengths were 620 nm and 665 nm. An IC50 value of the compound was derived using GraphPad Prism 5 program, in which the IC50 was derived by expressing emission energy at the wavelength of 665 nm as a function of the compound concentration.

T1 sequence (Q04912 25-1400): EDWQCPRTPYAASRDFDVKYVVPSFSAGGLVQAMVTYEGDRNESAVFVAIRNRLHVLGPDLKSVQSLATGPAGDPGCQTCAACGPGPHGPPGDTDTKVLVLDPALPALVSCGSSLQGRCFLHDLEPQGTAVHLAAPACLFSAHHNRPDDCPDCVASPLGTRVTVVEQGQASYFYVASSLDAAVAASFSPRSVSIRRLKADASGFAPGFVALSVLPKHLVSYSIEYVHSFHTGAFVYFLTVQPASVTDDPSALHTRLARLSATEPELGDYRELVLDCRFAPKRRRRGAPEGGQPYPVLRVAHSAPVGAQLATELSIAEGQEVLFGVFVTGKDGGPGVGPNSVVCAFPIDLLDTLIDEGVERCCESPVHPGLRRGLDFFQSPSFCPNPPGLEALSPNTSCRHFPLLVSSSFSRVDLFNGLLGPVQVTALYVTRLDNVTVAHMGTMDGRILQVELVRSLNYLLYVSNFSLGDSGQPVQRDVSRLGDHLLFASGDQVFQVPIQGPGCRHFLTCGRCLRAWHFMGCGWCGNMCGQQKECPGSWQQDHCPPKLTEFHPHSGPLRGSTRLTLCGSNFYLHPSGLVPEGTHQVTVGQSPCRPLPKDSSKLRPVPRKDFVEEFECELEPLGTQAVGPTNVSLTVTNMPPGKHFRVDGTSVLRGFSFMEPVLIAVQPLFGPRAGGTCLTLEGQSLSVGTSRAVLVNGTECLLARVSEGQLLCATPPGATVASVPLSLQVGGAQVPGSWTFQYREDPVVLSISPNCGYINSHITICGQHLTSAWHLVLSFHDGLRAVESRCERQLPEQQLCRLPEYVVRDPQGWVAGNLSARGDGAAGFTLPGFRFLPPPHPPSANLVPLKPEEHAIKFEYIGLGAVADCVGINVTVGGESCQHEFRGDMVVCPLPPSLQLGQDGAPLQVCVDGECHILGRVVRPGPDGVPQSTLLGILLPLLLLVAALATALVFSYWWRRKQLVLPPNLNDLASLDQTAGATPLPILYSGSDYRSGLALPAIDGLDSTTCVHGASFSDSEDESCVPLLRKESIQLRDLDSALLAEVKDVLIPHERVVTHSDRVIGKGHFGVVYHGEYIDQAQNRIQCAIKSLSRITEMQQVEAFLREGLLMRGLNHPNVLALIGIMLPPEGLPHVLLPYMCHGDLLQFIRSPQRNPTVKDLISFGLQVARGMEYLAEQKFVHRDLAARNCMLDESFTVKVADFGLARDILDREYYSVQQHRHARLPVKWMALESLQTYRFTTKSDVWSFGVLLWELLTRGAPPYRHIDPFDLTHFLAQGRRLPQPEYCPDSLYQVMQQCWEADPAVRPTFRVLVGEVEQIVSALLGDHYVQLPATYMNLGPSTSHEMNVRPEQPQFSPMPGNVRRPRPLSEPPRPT

Row | IC50 [nM] | Compound
1 | 2.24 | Nc1nccc(Oc2ccc(NC(=O)c3c4c(cn(-c5ccc(F)cc5)c3=O)CCO4)cc2F)c1Cl [Example 55, N-(4-((2-Amino-3-chloropyridin-4-yl)oxy)-3-fluorophenyl)-5-(4-fluorophenyl)-6-oxo-2,3,5,6-tetrahydrofuro[3,2-c]pyridine-7-carboxamide]
2 | 11.9 | Nc1cc(Oc2ccc(NC(=O)c3c4c(cn(-c5ccc(F)cc5)c3=O)CCO4)cc2F)ccn1 [Example 56, N-(4-((2-Aminopyridin-4-yl)oxy)-3-fluorophenyl)-5-(4-fluorophenyl)-6-oxo-2,3,5,6-tetrahydrofuro[3,2-c]pyridine-7-carboxamide]
3 | 1.57 | O=C(Nc1ccc(Oc2ccnc3[nH]ncc23)c(F)c1)c1c2c(cn(-c3ccc(F)cc3)c1=O)CCO2 [Example 68, N-(4-((1H-pyrazolo[3,4-b]pyridin-4-yl)oxy)-3-fluorophenyl)-5-(4-fluorophenyl)-6-oxo-2,3,5,6-tetrahydrofuro[3,2-c]pyridine-7-carboxamide]
4 | 9.75 | O=C(Nc1ccc(Oc2ncnc3c2CCN3)c(F)c1)c1c2c(cn(-c3ccc(F)cc3)c1=O)CCO2 [Example 74, N-(4-((6,7-Dihydro-5H-pyrrolo[2,3-d]pyrimidin-4-yl)oxy)-3-fluorophenyl)-5-(4-fluorophenyl)-6-oxo-2,3,5,6-tetrahydrofuro[3,2-c]pyridine-7-carboxamide]
5 | 25 | Nc1cc(Oc2ccc(NC(=O)c3c4c(cn(-c5ccc(F)cc5)c3=O)CCO4)cc2F)ncn1 [Example 58, N-(4-((6-Aminopyrimidin-4-yl)oxy)-3-fluorophenyl)-5-(4-fluorophenyl)-6-oxo-2,3,5,6-tetrahydrofuro[3,2-c]pyridine-7-carboxamide]
6 | 8.63 | O=C(Nc1ccc(Oc2ccnc3[nH]cnc23)c(F)c1)c1c2c(cn(-c3ccc(F)cc3)c1=O)CCO2 [Example 66, N-(4-((3H-imidazo[4,5-b]pyridin-7-yl)oxy)-3-fluorophenyl)-5-(4-fluorophenyl)-6-oxo-2,3,5,6-tetrahydrofuro[3,2-c]pyridine-7-carboxamide]
7 | 18.2 | Nc1nccc(Oc2ccc(NC(=O)c3c4c(cn(-c5ccc(F)cc5)c3=O)CCO4)cc2F)n1 [Example 57, N-(4-((2-Aminopyrimidin-4-yl)oxy)-3-fluorophenyl)-5-(4-fluorophenyl)-6-oxo-2,3,5,6-tetrahydrofuro[3,2-c]pyridine-7-carboxamide]
8 | > 1000 | NC(=O)c1nccc(Oc2ccc(NC(=O)c3c4c(cn(-c5ccc(F)cc5)c3=O)CCO4)cc2F)c1Cl [Example 54, N-(4-((2-Carbamoyl-3-chloropyridin-4-yl)oxy)-3-fluorophenyl)-5-(4-fluorophenyl)-6-oxo-2,3,5,6-tetrahydrofuro[3,2-c]pyridine-7-carboxamide]
9 | 46.2 | O=C(Nc1ccc(Oc2ncnc3[nH]cnc23)c(F)c1)c1c2c(cn(-c3ccc(F)cc3)c1=O)CCO2 [Example 72, N-(4-((9H-purin-6-yl)oxy)-3-fluorophenyl)-5-(4-fluorophenyl)-6-oxo-2,3,5,6-tetrahydrofuro[3,2-c]pyridine-7-carboxamide]
10 | 1.72 | O=C(Nc1ccc(Oc2ccnc3[nH]ccc23)c(F)c1)c1c2c(cn(-c3ccc(F)cc3)c1=O)CCO2 [Example 65, N-(4-((1H-pyrrolo[2,3-b]pyridin-4-yl)oxy)-3-fluorophenyl)-5-(4-fluorophenyl)-6-oxo-2,3,5,6-tetrahydrofuro[3,2-c]pyridine-7-carboxamide]
11 | 3.29 | O=C(Nc1ccc(Oc2ccnc3ccoc23)c(F)c1)c1c2c(cn(-c3ccc(F)cc3)c1=O)CCO2 [Example 69, N-(3-Fluoro-4-((furo[3,2-b]pyridin-7-yl)oxy)phenyl)-5-(4-fluorophenyl)-6-oxo-2,3,5,6-tetrahydrofuro[3,2-c]pyridine-7-carboxamide]
12 | 2800 | O=C(Nc1ccc(Oc2ccnc3ccnn23)c(F)c1)c1c2c(cn(-c3ccc(F)cc3)c1=O)CCO2 [Example 75, N-(3-Fluoro-4-(pyrazolo[1,5-a]pyrimidin-7-yloxy)phenyl)-5-(4-fluorophenyl)-6-oxo-2,3,5,6-tetrahydro[3,2-c]pyridine-7-carboxamide]

Further lines, the molecule ahead of its results:

Row | Compound | IC50 [nM]
13 | COc1cc2nccc(Oc3ccc(NC(=O)c4c5c(cn(-c6ccc(C(F)(F)F)cc6)c4=O)CCO5)cc3F)c2cc1OC [Example 42, N-(4-((6,7-Dimethoxyquinolin-4-yl)oxy)-3-fluorophenyl)-6-oxo-5-(4-(trifluoromethyl)phenyl)-2,3,5,6-tetrahydrofuro[3,2-c]pyridine-7-carboxamide] | 30
14 | CN1CCC(Nc2cc(Oc3ccc(NC(=O)c4c5c(cn(-c6ccc(F)cc6)c4=O)CCO5)cc3F)ncn2)CC1 [Example 61, N-(3-Fluoro-4-((6-((1-methylpiperidin-4-yl)amino)pyrimidin-4-yl)oxy)phenyl)-5-(4-fluorophenyl)-6-oxo-2,3,5,6-tetrahydrofuro[3,2-c]pyridine-7-carboxamide] | 156
15 | COc1cc2nccc(Oc3ccc(NC(=O)c4c5c(cn(-c6cccc(F)c6)c4=O)CCO5)cc3F)c2cc1OC [Example 43, N-(4-((6,7-Dimethoxyquinolin-4-yl)oxy)-3-fluorophenyl)-6-oxo-5-(3-fluorophenyl)-2,3,5,6-tetrahydrofuro[3,2-c]pyridine-7-carboxamide] | 5.13
16 | O=C(Nc1ccc(Oc2cc(NC3CCOCC3)ncn2)c(F)c1)c1c2c(cn(-c3ccc(F)cc3)c1=O)CCO2 [Example 59] | 2.24
17 | O=C(Nc1ccc(Oc2ccnc3cc(-c4ccc(CN5CCOCC5)cn4)sc23)c(F)c1)c1c2c(cn(-c3ccc(F)cc3)c1=O)CCC2 [Example 7] | 34.9
18 | O=C(Nc1ccc(Oc2ccnc3cc(OCCN4CCOCC4)ccc23)c(F)c1)c1c2c(cn(-c3ccc(F)cc3)c1=O)CCO2 [Example 157, N-(3-Fluoro-4-((7-(2-morpholinylethoxy)quinolin-4-yl)oxy)phenyl)-5-(4-fluorophenyl)-6-oxo-2,3,5,6-tetrahydrofuro[3,2-c]pyridine-7-carboxamide] | 1.32
19 | O=C(Nc1ccc(Oc2ccnc3cc(OCCN4CCOCC4)c(C(F)(F)F)cc23)c(F)c1)c1c2c(cn(-c3ccc(F)cc3)c1=O)CCO2 [Example 169, N-(3-Fluoro-4-((7-(2-morpholinoethoxy)-6-(trifluoromethyl)quinolin-4-yl)oxy)phenyl)-5-(4-fluorophenyl)-6-oxo-2,3,5,6-tetrahydrofuro[3,2-c]pyridine-7-carboxamide] | > 100
20 | O=C(Nc1ccc(Oc2ccnc(NC3CCOCC3)c2)c(F)c1)c1c2c(cn(-c3ccc(F)cc3)c1=O)CCO2 [Example 60, N-(3-Fluoro-4-((2-((tetrahydro-2H-pyran-4-yl)amino)pyridin-4-yl)oxy)phenyl)-5-(4-fluorophenyl)-6-oxo-2,3,5,6-tetrahydrofuro[3,2-c]pyridine-7-carboxamide] | 13.1
21 | O=C(Nc1ccc(Oc2ccnc3cc(OCCCN4CCOCC4)ccc23)c(F)c1)c1c2c(cn(-c3ccc(F)cc3)c1=O)CCC2 [Example 159, N-(3-Fluoro-4-((7-(3-morpholinopropoxy)quinolin-4-yl)oxy)phenyl)-2-(4-fluorophenyl)-3-oxo-3,5,6,7-tetrahydro-2H-cyclopenta[c]pyridine-4-carboxamide] | 11.9
